Test results published in US11053204B2, “Pyrimidinyloxy benzene derivatives as herbicides” (FMC Corporation, priority 2015, dated 2021).

Experiments:
Type in all cases: in vivo
[1] = system: nightshade (eastern black nightshade, Solanum ptycanthum); experiment: Test C postemergence, plant response rating; details: for Nightshade plant response rating: scale 0 to 100 (0 no effect, 100 complete control)
In short: (§1)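 Preemergence: seeds sown in loam–sand blend or silt loam and sprayed with test chemicals in a non-phytotoxic surfactant-containing solvent. Postemergence: potted plants at 2–18 cm (1–4-leaf stage) sprayed with the same formulation. After 13–15 d in greenhouse, visual rating versus controls on 0 (no effect) to 100 (complete control) scale.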

[2] = system: field poppy (Papaver rhoeas); experiment: Test C postemergence, plant response rating; details: for Field Poppy plant response rating: scale 0 to 100 (0 no effect, 100 complete control)
In short: as §1

[3] = system: Canada thistle (Cirsium arvense); experiment: Test C postemergence, plant response rating; details: for Canada Thistle plant response rating: scale 0 to 100 (0 no effect, 100 complete control)
In short: as §1

[4] = system: johnsongrass (Sorghum halepense); experiment: Test C postemergence, plant response rating; details: for Johnsongrass plant response rating: scale 0 to 100 (0 no effect, 100 complete control)
In short: as §1

[5] = system: pigweed, palmer (palmer pigweed, Amaranthus palmeri); experiment: Test C postemergence, plant response rating; details: for Pigweed, Palmer plant response rating: scale 0 to 100 (0 no effect, 100 complete control)
In short: as §1

[6] = system: buckwheat, wild (wild buckwheat, Polygonum convolvulus); experiment: Test C postemergence, plant response rating; details: for Buckwheat, Wild plant response rating: scale 0 to 100 (0 no effect, 100 complete control)
In short: as §1

[7] = system: speedwell (bird's-eye speedwell, Veronica persica); experiment: Test C postemergence, plant response rating; details: for Speedwell plant response rating: scale 0 to 100 (0 no effect, 100 complete control)
In short: as §1

[8] = system: geranium, cutleaf (cutleaf geranium, Geranium dissectum); experiment: Test C postemergence, plant response rating; details: for Geranium, Cutleaf plant response rating: scale 0 to 100 (0 no effect, 100 complete control)
In short: as §1

[9] = system: field violet (Viola arvensis); experiment: Test C postemergence, plant response rating; details: for Field Violet plant response rating: scale 0 to 100 (0 no effect, 100 complete control)
In short: as §1

[10] = system: windgrass (Apera spica-venti); experiment: Test C postemergence, plant response rating
In short: as §1

[11] = system: surinam grass (Brachiaria decumbens); experiment: Test C postemergence, plant response rating
In short: as §1

[12] = system: wild poinsettia (Euphorbia heterophylla); experiment: Test C postemergence, plant response rating; details: for Poinsettia, Wild plant response rating: scale 0 to 100 (0 no effect, 100 complete control)
In short: as §1

[13] = system: wild poinsettia (Euphorbia heterophylla); experiment: Test C preemergence, plant response rating
[14] = system: pigweed, palmer (palmer pigweed, Amaranthus palmeri); experiment: Test C preemergence, plant response rating
[15] = system: kochia (Kochia scoparia); experiment: Test C preemergence, plant response rating
[16] = system: galium (catchweed bedstraw, Galium aparine); experiment: Test C preemergence, plant response rating
[17] = system: johnsongrass (Sorghum halepense); experiment: Test C preemergence, plant response rating
[18] = system: oat, wild (wild oat Avena fatua); experiment: Test C preemergence, plant response rating
[19] = system: surinam grass (Brachiaria decumbens); experiment: Test C preemergence, plant response rating
[20] = 125 g ai/ha, scale 0 to 100 (0 no effect, 100 complete control)

CCCCC(=O)c1c(Br)cccc1Oc1ncc(Cl)cn1 [Compound 79]
Plant response rating, Nightshade ([1]; 16 g ai/ha, scale of 0 to 100): 90 | Plant response rating, Nightshade ([1]; 31 g ai/ha, scale 0 to 100): 95 | Nightshade plant response rating ([1]; 62 g ai/ha): 95 | Nightshade plant response rating ([1]; 125 g ai/ha): 100 | Plant response rating, Field Poppy ([2]; 16 g ai/ha, scale of 0 to 100): 85 | Plant response rating, Field Poppy ([2]; 31 g ai/ha, scale 0 to 100): 98 | Field Poppy plant response rating ([2]; 62 g ai/ha): 100 | Field Poppy plant response rating ([2]; 125 g ai/ha): 100 | Plant response rating, Canada Thistle ([3]; 16 g ai/ha, scale of 0 to 100): 55 | Plant response rating, Canada Thistle ([3]; 31 g ai/ha, scale 0 to 100): 65 | Canada Thistle plant response rating ([3]; 62 g ai/ha): 70 | Canada Thistle plant response rating ([3]; 125 g ai/ha): 100 | Plant response rating, Johnsongrass ([4]; 16 g ai/ha, scale of 0 to 100): 40 | Plant response rating, Johnsongrass ([4]; 31 g ai/ha, scale 0 to 100): 65 | Johnsongrass plant response rating ([4]; 62 g ai/ha): 60 | Johnsongrass plant response rating ([4]; 125 g ai/ha): 85 | Plant response rating, Pigweed, Palmer ([5]; 16 g ai/ha, scale of 0 to 100): 60 | Plant response rating, Pigweed, Palmer ([5]; 31 g ai/ha, scale 0 to 100): 80 | Pigweed, Palmer plant response rating ([5]; 62 g ai/ha): 70 | Pigweed, Palmer plant response rating ([5]; 125 g ai/ha): 85 | Plant response rating, Buckwheat, Wild ([6]; 16 g ai/ha, scale of 0 to 100): 75 | Plant response rating, Buckwheat, Wild ([6]; 31 g ai/ha, scale 0 to 100): 80 | Buckwheat, Wild plant response rating ([6]; 62 g ai/ha): 85 | Buckwheat, Wild plant response rating ([6]; 125 g ai/ha): 90 | Plant response rating, Speedwell ([7]; 16 g ai/ha, scale of 0 to 100): 85 | Plant response rating, Speedwell ([7]; 31 g ai/ha, scale 0 to 100): 90 | Speedwell plant response rating ([7]; 62 g ai/ha): 98 | Speedwell plant response rating ([7]; 125 g ai/ha): 100 | Plant response rating, Geranium, Cutleaf ([8]; 16 g ai/ha, scale of 0 to 100): 45 | Plant response rating, Geranium, Cutleaf ([8]; 31 g ai/ha, scale 0 to 100): 50 | Geranium, Cutleaf plant response rating ([8]; 62 g ai/ha): 55 | Geranium, Cutleaf plant response rating ([8]; 125 g ai/ha): 65 | Plant response rating, Field Violet ([9]; 16 g ai/ha, scale of 0 to 100): 70 | Plant response rating, Field Violet ([9]; 31 g ai/ha, scale 0 to 100): 75 | Field Violet plant response rating ([9]; 62 g ai/ha): 85 | Field Violet plant response rating ([9]; 125 g ai/ha): 90 | Plant response rating, Windgrass ([10]; 16 g ai/ha, scale of 0 to 100): 20 | Plant response rating, Windgrass ([10]; 31 g ai/ha, scale 0 to 100): 35 | Windgrass plant response rating [10, 20]: 30 | Plant response rating, Surinam Grass ([11]; 16 g ai/ha, scale of 0 to 100): 25 | Plant response rating, Surinam Grass ([11]; 31 g ai/ha, scale 0 to 100): 25 | Surinam Grass plant response rating [11, 20]: 35 | Plant response rating, Poinsettia, Wild ([12]; 16 g ai/ha, scale of 0 to 100): 30 | Plant response rating, Poinsettia, Wild ([12]; 31 g ai/ha, scale 0 to 100): 75 | Poinsettia, Wild plant response rating ([12]; 62 g ai/ha): 80 | Poinsettia, Wild plant response rating ([12]; 125 g ai/ha): 85 | Plant response rating, Poinsettia, Wild ([13]; 16 g ai/ha, scale 0 to 100): 0 | Plant response rating, Poinsettia, Wild ([13]; 31 g ai/ha, scale 0 to 100): 0 | Plant response rating, Poinsettia, Wild ([13]; 62 g ai/ha, scale 0 to 100): 10 | Plant response rating, Poinsettia, Wild ([13]; 125 g ai/ha, scale of 0 to 100): 40 | Plant response rating, Pigweed, Palmer ([14]; 16 g ai/ha, scale 0 to 100): 75 | Plant response rating, Pigweed, Palmer ([14]; 31 g ai/ha, scale 0 to 100): 85 | Plant response rating, Pigweed, Palmer ([14]; 62 g ai/ha, scale 0 to 100): 90 | Plant response rating, Pigweed, Palmer ([14]; 125 g ai/ha, scale of 0 to 100): 90 | Plant response rating, Kochia ([15]; 16 g ai/ha, scale 0 to 100): 5 | Plant response rating, Kochia ([15]; 31 g ai/ha, scale 0 to 100): 90 | Plant response rating, Kochia ([15]; 62 g ai/ha, scale 0 to 100): 90 | Plant response rating, Kochia ([15]; 125 g ai/ha, scale of 0 to 100): 100 | Plant response rating, Galium ([16]; 16 g ai/ha, scale 0 to 100): 0 | Plant response rating, Galium ([16]; 31 g ai/ha, scale 0 to 100): 0 | Plant response rating, Galium ([16]; 62 g ai/ha, scale of 0 to 100): 70 | Plant response rating, Galium ([16]; 125 g ai/ha, scale of 0 to 100): 5 | Plant response rating, Johnsongrass ([17]; 16 g ai/ha, scale 0 to 100): 0 | Plant response rating, Johnsongrass ([17]; 31 g ai/ha, scale 0 to 100): 5 | Plant response rating, Johnsongrass ([17]; 62 g ai/ha, scale 0 to 100): 50 | Plant response rating, Johnsongrass ([17]; 125 g ai/ha, scale of 0 to 100): 70 | Plant response rating, Oat, Wild ([18]; 16 g ai/ha, scale 0 to 100): 0 | Plant response rating, Oat, Wild ([18]; 31 g ai/ha, scale 0 to 100): 0 | Plant response rating, Oat, Wild ([18]; 62 g ai/ha, scale 0 to 100): 5 | Plant response rating, Oat, Wild ([18]; 125 g ai/ha, scale of 0 to 100): 40 | Plant response rating, Surinam Grass ([19]; 16 g ai/ha, scale 0 to 100): 5 | Plant response rating, Surinam Grass ([19]; 31 g ai/ha, scale 0 to 100): 30 | Plant response rating, Surinam Grass ([19]; 62 g ai/ha, scale 0 to 100): 50 | Plant response rating, Surinam Grass ([19]; 125 g ai/ha, scale of 0 to 100): 85
